Reference: DBAASP
In brackets after ≈: the same amount, converted by molar mass. Values belong to the compound of their own block, whether it stands above or below them.

Key:
Assay in all cases: ≥ marks a high value that may be exact or a test limit, other limits are often not marked, values filed in µg/mL are converted to µM
[1] = test system: Enterococcus faecium 5F-10
[2] = test system: Pseudomonas aeruginosa PAO1
[3] = test system: Bacillus licheniformis ATCC 14580
[4] = test system: Escherichia coli ATCC 25922
[5] = test system: Enterococcus faecalis 1F-1
[6] = test system: Bacillus cereus ATCC 14579
[7] = test system: Staphylococcus aureus ATCC 29213
[8] = test system: Salmonella enterica ATCC H9812
[9] = test system: Bacillus amyloliquefaciens ATCC 23842
[10] = test system: Bacillus subtilis ATCC 6051
[11] = test system: Proteus mirabilis ATCC 35659
[12] = test system: Salmonella enterica subsp. enterica serovar Salford IMVS 1710
[13] = test system: Staphylococcus aureus NCTC 6571
Bacillus cereus ACM 446 = test system: Bacillus cereus ACM 446
Escherichia coli L361 = test system: Escherichia coli L361
Escherichia coli O9 = test system: Escherichia coli O9
[14] = test system: Listeria monocytogenes NCTC 7973
Pseudomonas fluorescens = test system: Pseudomonas fluorescens
Micrococcus luteus A270 = test system: Micrococcus luteus A270
[15] = test system: Serratia marcescens ATCC 4112
[16] = test system: Pseudomonas aeruginosa ATCC 27853
[17] = test system: Bacillus subtilis ATCC 6633
Candida albicans MDM8 = test system: Candida albicans MDM8
[18] = test system: Enterobacter cloacae beta-12
Escherichia coli SBS 363 = test system: Escherichia coli SBS 363
[19] = test system: Candida tropicalis IOC 4560
[20] = test system: Bacillus megaterium ATCC 10778
Enterobacter cloacae = test system: Enterobacter cloacae
Escherichia coli NDM-1 = test system: Escherichia coli NDM-1
Morganella morganii = test system: Morganella morganii
Citrobacter freundii = test system: Citrobacter freundii
[21] = test system: Bacillus subtilis ATCC 23857
Klebsiella oxytoca = test system: Klebsiella oxytoca
[22] = test system: Klebsiella pneumoniae NDM-1
Enterococcus faecalis = test system: Enterococcus faecalis
[23] = test system: Staphylococcus aureus ATCC 1717
[24] = test system: Listeria monocytogenes CGMCC 1.1075
[25] = test system: Bacillus subtilis CMCC 63501
[26] = test system: Staphylococcus aureus ATCC 25923
[27] = test system: Salmonella enterica subsp. enterica serovar Typhimurium ATCC 14028
[28] = test system: Salmonella enterica subsp. enterica serovar Pullorum ATCC 7913
Escherichia coli 078 = test system: Escherichia coli 078
[29] = test system: Salmonella typhimurium ATCC 7731
Escherichia coli UB1005 = test system: Escherichia coli UB1005
Acinetobacter baumannii = test system: Acinetobacter baumannii
[30] = test system: Enterococcus faecalis ATCC 29212
Escherichia coli K88 = test system: Escherichia coli K88
[31] = test system: Staphylococcus aureus ATCC 43300
[32] = test system: Staphylococcus epidermidis ATCC 12228
[33] = test system: Bacillus cereus CGMCC 1.932
Escherichia coli K99 = test system: Escherichia coli K99
[34] = test system: Salmonella enterica subsp. enterica serovar Typhi CMCC 50071
[35] = test system: Salmonella enterica subsp. enterica serovar Typhimurium C77-31
[36] = test system: Salmonella enterica subsp. enterica serovar Pullorum C79-13

SMILES: CC(C)C[C@H](NC(=O)[C@H](CC(C)C)NC(=O)[C@H](CCC(=O)O)NC(=O)[C@@H](N)CC(=O)O)C(=O)N[C@@H](CO)C(=O)N[C@@H](CCCN=C(N)N)C(=O)N[C@H](C(=O)O)C(C)C [DELLSRV]
MIC [1]: ≥ 154 µM
MIC [2]: > 154 µM
MIC [3]: ≥ 154 µM
MIC [4]: 38.5 µM (≈ 32 µg/mL)
MIC [5]: ≥ 154 µM
MIC [6]: ≥ 154 µM
MIC [7]: > 154 µM
MIC [8]: ≥ 77 µM
MIC [9]: ≥ 154 µM
MIC [10]: ≥ 154 µM
MIC [11]: ≥ 154 µM

SMILES: NCCCC[C@H](NC(=O)[C@H](Cc1c[nH]c2ccccc12)NC(=O)[C@H](CCCN=C(N)N)NC(=O)[C@H](CCCN=C(N)N)NC(=O)[C@H](Cc1c[nH]c2ccccc12)NC(=O)[C@H](CCC(N)=O)NC(=O)[C@H](Cc1c[nH]c2ccccc12)NC(=O)[C@H](CCCN=C(N)N)NC(=O)[C@H](CCCN=C(N)N)NC(=O)[C@H](Cc1c[nH]c2ccccc12)NC(=O)[C@@H](N)CCCCN)C(N)=O [KWRRWQWRRWK]
MIC [34]: ≥ 128 µM
MIC [26]: 32 µM (≈ 56.7 µg/mL)
MIC [27]: 32 µM (≈ 56.7 µg/mL)
MIC (Escherichia coli UB1005): 8 µM (≈ 14.2 µg/mL)
MIC [7]: 8 µM (≈ 14.2 µg/mL)
MIC [35]: 16 µM (≈ 28.3 µg/mL)
MIC [36]: 16 µM (≈ 28.3 µg/mL)
MIC [32]: 8 µM (≈ 14.2 µg/mL)

Now from value to compound:

MIC [12]: 4 µM (≈ 12.8 µg/mL)
MIC [13]: 6 µM (≈ 19.2 µg/mL)
MIC (Bacillus cereus ACM 446): 8 µM (≈ 25.6 µg/mL)
MIC (Escherichia coli L361): 4 µM (≈ 12.8 µg/mL)
MIC (Escherichia coli O9): 8 µM (≈ 25.6 µg/mL)
MIC [14]: 4 µM (≈ 12.8 µg/mL)
MIC (Pseudomonas fluorescens): 6 µM (≈ 19.2 µg/mL)
SMILES: CC[C@H](C)[C@H](NC(=O)[C@H](CO)NC(=O)[C@@H]1CCCN1C(=O)[C@H](C)NC(=O)CNC(=O)[C@H](CC(C)C)NC(=O)[C@H](CCCCN)NC(=O)[C@H](CCCCN)NC(=O)[C@H](CCSC)NC(=O)[C@H](CCCN=C(N)N)NC(=O)[C@H](Cc1c[nH]c2ccccc12)NC(=O)[C@H](CCC(N)=O)NC(=O)[C@H](Cc1c[nH]c2ccccc12)NC(=O)[C@H](CCCN=C(N)N)NC(=O)[C@H](CCCN=C(N)N)NC(=O)[C@H](CS)NC(=O)[C@H](CCCCN)NC(=O)[C@@H](N)Cc1ccccc1)C(=O)N[C@H](C(=O)N[C@@H](CS)C(=O)N[C@H](C(=O)N[C@@H](CCCN=C(N)N)C(=O)N[C@@H](CCCN=C(N)N)C(=O)N[C@@H](C)C(=O)N[C@@H](Cc1ccccc1)C(=O)N[C@@H](C)C(=O)O)C(C)C)[C@@H](C)O [FKCRRWQWRMKKLGAPSITCVRRAFA]

MIC (Micrococcus luteus A270): 1.6 µM (≈ 2.39 µg/mL)
MIC [15]: 0.4 µM (≈ 0.597 µg/mL)
MIC [16]: 6.3 µM (≈ 9.4 µg/mL)
MIC [17]: 0.8 µM (≈ 1.19 µg/mL)
MIC (Candida albicans MDM8): 1.6 µM (≈ 2.39 µg/mL)
MIC [7]: 1.6 µM (≈ 2.39 µg/mL)
MIC [18]: 6.3 µM (≈ 9.4 µg/mL)
MIC (Escherichia coli SBS 363): 1.6 µM (≈ 2.39 µg/mL)
MIC [19]: 1.6 µM (≈ 2.39 µg/mL)
MIC [20]: 0.8 µM (≈ 1.19 µg/mL)
SMILES: CC(C)C[C@H](NC(=O)[C@H](C)NC(=O)CNC(=O)[C@H](CC(C)C)NC(=O)[C@@H](N)Cc1ccccc1)C(=O)N[C@@H](Cc1c[nH]c2ccccc12)C(=O)N[C@@H](CCCN=C(N)N)C(=O)N[C@H](C(=O)N[C@@H](C)C(=O)N[C@@H](CCCCN)C(=O)N[C@@H](CO)C(=O)N[C@H](C(=O)N[C@@H](Cc1ccccc1)C(N)=O)C(C)C)C(C)C [FLGALWRVAKSVF]

MIC (Enterobacter cloacae): 22.6 µM (≈ 29 µg/mL)
MIC (Escherichia coli NDM-1): 16 µM (≈ 20.5 µg/mL)
MIC (Morganella morganii): ≥ 128 µM
MIC [4]: 16 µM (≈ 20.5 µg/mL)
MIC (Citrobacter freundii): 16 µM (≈ 20.5 µg/mL)
MIC [21]: 16 µM (≈ 20.5 µg/mL)
MIC (Klebsiella oxytoca): ≥ 32 µM
MIC [22]: 22.6 µM (≈ 29 µg/mL)
MIC (Enterococcus faecalis): ≥ 64 µM
MIC [23]: ≥ 128 µM
SMILES: CC[C@H](C)[C@H](NC(=O)CN)C(=O)N[C@@H](CCCCN)C(=O)N[C@@H](C)C(=O)NCC(=O)N[C@H](C(=O)N[C@H](C(=O)N[C@H](C(=O)N[C@@H](CCCCN)C(=O)N[C@H](C(=O)N[C@@H](CCCCN)C(=O)N[C@@H](CCCCN)C(N)=O)[C@@H](C)CC)[C@@H](C)CC)[C@@H](C)CC)[C@@H](C)CC [GIKAGIIIKIKK]

MIC [24]: 1 µM (≈ 1.73 µg/mL)
MIC [16]: 8 µM (≈ 13.8 µg/mL)
MIC [2]: 4 µM (≈ 6.92 µg/mL)
MIC [25]: 4 µM (≈ 6.92 µg/mL)
MIC [26]: 4 µM (≈ 6.92 µg/mL)
MIC [27]: 8 µM (≈ 13.8 µg/mL)
MIC [28]: 4 µM (≈ 6.92 µg/mL)
MIC (Escherichia coli 078): 4 µM (≈ 6.92 µg/mL)
MIC [29]: 8 µM (≈ 13.8 µg/mL)
MIC (Escherichia coli UB1005): 2 µM (≈ 3.46 µg/mL)
MIC (Acinetobacter baumannii): 1 µM (≈ 1.73 µg/mL)
MIC [30]: 2 µM (≈ 3.46 µg/mL)
MIC (Escherichia coli K88): 1 µM (≈ 1.73 µg/mL)
MIC [31]: 4 µM (≈ 6.92 µg/mL)
MIC [32]: 2 µM (≈ 3.46 µg/mL)
MIC [33]: 8 µM (≈ 13.8 µg/mL)
MIC (Escherichia coli K99): 2 µM (≈ 3.46 µg/mL)
SMILES: CC(C)[C@H](NC(=O)[C@H](CCCN=C(N)N)NC(=O)[C@H](Cc1c[nH]c2ccccc12)NC(=O)[C@H](CCCN=C(N)N)NC(=O)[C@H](Cc1c[nH]c2ccccc12)NC(=O)[C@H](Cc1c[nH]c2ccccc12)NC(=O)[C@H](Cc1c[nH]c2ccccc12)NC(=O)[C@H](CCCN=C(N)N)NC(=O)[C@H](Cc1c[nH]c2ccccc12)NC(=O)[C@H](CCCN=C(N)N)NC(=O)CN)C(N)=O [GRWRWWWRWRV]
